# Compound: Cn1c(=O)n(-c2ccc(C(C)(C)C#N)cc2)c2c3cc(-c4cnc5ccccc5c4)ccc3ncc21 [Dactolisib] + CC(=O)c1c(C)c2cnc(Nc3ccc(N4CCNCC4)cn3)nc2n(C2CCCC2)c1=O [Palbociclib] (partner 0.5 µM)
# Assay: relative viability (nuclei count vs DMSO), 5 days (fraction); higher = more cells survive
# Conditions: first compound 0.002 µM
# Summary of the method: (§1)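 After 5 days of treatment, lung cancer cells in 1536-well plates were fixed and stained in a single step (final 0.05% Triton X-100, 1% formaldehyde, 1 ug/ml Hoechst) and their nuclei counted on 4× images. Treatment had been applied by pin tool the day after seeding as one drug alone or as a fixed anchor-drug dose with five library-drug doses (not always all listed) in √10 steps. Relative viability is the nuclei count of treated wells divided by that of vehicle wells, and values are medians of duplicate plates.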
row,Cell Line,relative viability
1,NCI-H2342,0.556
2,NCI-H1650,0.357
3,NCI-H1993,0.605
4,SK-LU-1,0.335
5,NCI-H838,0.2
6,LCLC-103H,0.483
7,NCI-H520,0.206
8,NCI-H2126,0.369
9,EMC-BAC-2,0.563
10,NCI-H2085,0.491
11,HCC-366,0.402
12,NCI-H1666,0.628
13,LK-2,0.513
14,NCI-H2087,0.275
15,NCI-H1648,0.284
16,SK-MES-1,0.297
17,H3255,0.332
18,COR-L23,0.327
19,COR-L 105,0.393
20,LOU-NH91,0.532
21,ChaGo-K-1,0.93

row,Cell Line,relative viability
1,NCI-H2170,0.379
2,NCI-H2405,0.471
3,HOP-62,0.467
4,HCC-44,1.04
5,NCI-H522,0.924
6,LU99A,0.419
7,BEN,0.479
8,HARA,0.304
9,SW 900,0.683
10,HCC-78,0.46
11,NCI-H322M,0.487
12,LCLC-97TM1,0.217
13,NCI-H2009,0.235
14,A-427,0.547
15,NCI-H441,0.27
16,NCI-H661,0.415
17,NCI-H1734,0.344
18,NCI-H460,0.0965
19,NCI-H2347,0.505
20,SW 1573,0.395
21,NCI-H1395,0.558

row,Cell Line,relative viability
1,201T,0.363
2,NCI-H1915,0.609
3,HCC-827,0.473
4,LXF-289,0.622
5,NCI-H23,0.464
6,NCI-H647,0.398
7,CAL-12T,0.526
8,NCI-H1651,0.532
9,EPLC-272H,0.331
10,NCI-H2228,0.882
11,NCI-H1792,0.676
12,NCI-H1355,0.406
13,NCI-H3122,0.18
14,NCI-H1437,0.321
15,NCI-H1755,0.482
16,NCI-H2023,0.395
17,HCC-15,0.778
18,NCI-H1793,0.289
19,PC-14,0.654

# Same assay, conditions: first compound 0.006325 µM
row,Cell Line,relative viability
1,NCI-H2342,0.535
2,NCI-H727,0.693
3,NCI-H1650,0.348
4,NCI-H1993,0.524
5,SK-LU-1,0.393
6,NCI-H838,0.186
7,LCLC-103H,0.494
8,NCI-H520,0.178
9,NCI-H2126,0.359
10,EMC-BAC-2,0.486
11,NCI-H2085,0.446
12,HCC-366,0.349
13,NCI-H1666,0.624
14,LK-2,0.653
15,NCI-H2087,0.232
16,NCI-H1648,0.283
17,SK-MES-1,0.298
18,H3255,0.305
19,COR-L23,0.282
20,COR-L 105,0.375
21,LOU-NH91,0.548

row,Cell Line,relative viability
1,ChaGo-K-1,0.958
2,NCI-H2170,0.385
3,NCI-H2405,0.542
4,HOP-62,0.45
5,HCC-44,1.02
6,NCI-H522,1
7,LU99A,0.37
8,BEN,0.477
9,HARA,0.233
10,SW 900,0.46
11,HCC-78,0.453
12,NCI-H322M,0.476
13,LCLC-97TM1,0.252
14,NCI-H2009,0.202
15,A-427,0.529
16,NCI-H441,0.206
17,NCI-H661,0.379
18,NCI-H1734,0.356
19,NCI-H460,0.111
20,NCI-H2347,0.448
21,SW 1573,0.324

row,Cell Line,relative viability
1,NCI-H1395,0.589
2,201T,0.356
3,NCI-H1915,0.496
4,HCC-827,0.518
5,LXF-289,0.591
6,NCI-H23,0.383
7,NCI-H647,0.294
8,CAL-12T,0.396
9,NCI-H1651,0.487
10,EPLC-272H,0.299
11,NCI-H2228,0.725
12,NCI-H1792,0.651
13,NCI-H1355,0.368
14,NCI-H3122,0.198
15,NCI-H1437,0.328
16,NCI-H1755,0.423
17,NCI-H2023,0.297
18,HCC-15,0.723
19,NCI-H1793,0.212
20,PC-14,0.487

# Same assay, conditions: first compound 0.02 µM
row,Cell Line,relative viability
1,NCI-H2342,0.505
2,NCI-H727,0.658
3,NCI-H1650,0.298
4,NCI-H1993,0.439
5,SK-LU-1,0.337
6,NCI-H838,0.151
7,LCLC-103H,0.45
8,NCI-H520,0.163
9,NCI-H2126,0.33
10,EMC-BAC-2,0.461
11,NCI-H2085,0.382
12,HCC-366,0.232
13,NCI-H1666,0.673
14,LK-2,0.491
15,NCI-H2087,0.221
16,NCI-H1648,0.231
17,SK-MES-1,0.269
18,H3255,0.321
19,COR-L23,0.228
20,COR-L 105,0.432
21,LOU-NH91,0.549

row,Cell Line,relative viability
1,ChaGo-K-1,0.88
2,NCI-H2170,0.316
3,NCI-H2405,0.449
4,HOP-62,0.383
5,HCC-44,1.01
6,NCI-H522,0.99
7,LU99A,0.297
8,BEN,0.473
9,HARA,0.301
10,SW 900,0.45
11,HCC-78,0.479
12,NCI-H322M,0.415
13,LCLC-97TM1,0.194
14,NCI-H2009,0.235
15,A-427,0.498
16,NCI-H441,0.194
17,NCI-H661,0.368
18,NCI-H1734,0.314
19,NCI-H460,0.13
20,NCI-H2347,0.401
21,SW 1573,0.225

row,Cell Line,relative viability
1,NCI-H1395,0.556
2,201T,0.334
3,NCI-H1915,0.557
4,HCC-827,0.47
5,LXF-289,0.585
6,NCI-H23,0.37
7,NCI-H647,0.196
8,CAL-12T,0.256
9,NCI-H1651,0.463
10,EPLC-272H,0.341
11,NCI-H2228,0.638
12,NCI-H1792,0.568
13,NCI-H1355,0.352
14,NCI-H3122,0.173
15,NCI-H1437,0.369
16,NCI-H1755,0.42
17,NCI-H2023,0.274
18,HCC-15,0.715
19,NCI-H1793,0.21
20,PC-14,0.446

# Same assay, conditions: first compound 0.06325 µM
row,Cell Line,relative viability
1,NCI-H2342,0.454
2,NCI-H727,0.581
3,NCI-H1650,0.191
4,NCI-H1993,0.424
5,SK-LU-1,0.268
6,NCI-H838,0.142
7,LCLC-103H,0.414
8,NCI-H520,0.153
9,NCI-H2126,0.352
10,EMC-BAC-2,0.324
11,NCI-H2085,0.373
12,HCC-366,0.102
13,NCI-H1666,0.622
14,LK-2,0.212
15,NCI-H2087,0.172
16,NCI-H1648,0.206
17,SK-MES-1,0.247
18,H3255,0.313
19,COR-L23,0.135
20,COR-L 105,0.392
21,LOU-NH91,0.524

row,Cell Line,relative viability
1,ChaGo-K-1,0.84
2,NCI-H2170,0.205
3,NCI-H2405,0.314
4,HOP-62,0.288
5,HCC-44,0.99
6,NCI-H522,0.754
7,LU99A,0.216
8,BEN,0.458
9,HARA,0.233
10,SW 900,0.248
11,HCC-78,0.475
12,NCI-H322M,0.387
13,LCLC-97TM1,0.161
14,NCI-H2009,0.153
15,A-427,0.428
16,NCI-H441,0.176
17,NCI-H661,0.342
18,NCI-H1734,0.228
19,NCI-H460,0.0706
20,NCI-H2347,0.402
21,SW 1573,0.154

row,Cell Line,relative viability
1,NCI-H1395,0.452
2,201T,0.279
3,NCI-H1915,0.317
4,HCC-827,0.36
5,LXF-289,0.522
6,NCI-H23,0.189
7,NCI-H647,0.0842
8,CAL-12T,0.172
9,NCI-H1651,0.348
10,EPLC-272H,0.317
11,NCI-H2228,0.197
12,NCI-H1792,0.34
13,NCI-H1355,0.255
14,NCI-H3122,0.16
15,NCI-H1437,0.274
16,NCI-H1755,0.388
17,NCI-H2023,0.106
18,HCC-15,0.471
19,NCI-H1793,0.212
20,PC-14,0.0827

# Same assay, conditions: first compound 0.2 µM
row,Cell Line,relative viability
1,NCI-H2342,0.466
2,NCI-H727,0.513
3,NCI-H1650,0.142
4,NCI-H1993,0.354
5,SK-LU-1,0.281
6,NCI-H838,0.117
7,LCLC-103H,0.373
8,NCI-H520,0.117
9,NCI-H2126,0.316
10,EMC-BAC-2,0.29
11,NCI-H2085,0.308
12,HCC-366,0.0378
13,NCI-H1666,0.579
14,LK-2,0.167
15,NCI-H2087,0.142
16,NCI-H1648,0.215
17,SK-MES-1,0.214
18,H3255,0.314
19,COR-L23,0.0957
20,COR-L 105,0.31
21,LOU-NH91,0.52

row,Cell Line,relative viability
1,ChaGo-K-1,0.85
2,NCI-H2170,0.167
3,NCI-H2405,0.291
4,HOP-62,0.147
5,HCC-44,0.919
6,NCI-H522,0.674
7,LU99A,0.181
8,BEN,0.426
9,HARA,0.188
10,SW 900,0.199
11,HCC-78,0.441
12,NCI-H322M,0.415
13,LCLC-97TM1,0.0966
14,NCI-H2009,0.118
15,A-427,0.401
16,NCI-H441,0.133
17,NCI-H661,0.332
18,NCI-H1734,0.201
19,NCI-H460,0.0375
20,NCI-H2347,0.358
21,SW 1573,0.116

row,Cell Line,relative viability
1,NCI-H1395,0.419
2,201T,0.267
3,NCI-H1915,0.262
4,HCC-827,0.171
5,LXF-289,0.381
6,NCI-H23,0.191
7,NCI-H647,0.0654
8,CAL-12T,0.133
9,NCI-H1651,0.231
10,EPLC-272H,0.287
11,NCI-H2228,0.147
12,NCI-H1792,0.271
13,NCI-H1355,0.174
14,NCI-H3122,0.137
15,NCI-H1437,0.215
16,NCI-H1755,0.38
17,NCI-H2023,0.0901
18,HCC-15,0.28
19,NCI-H1793,0.19
20,PC-14,0.0725

# Compound: Cn1c(=O)n(-c2ccc(C(C)(C)C#N)cc2)c2c3cc(-c4cnc5ccccc5c4)ccc3ncc21 [Dactolisib] + O=C(c1cc(Cc2n[nH]c(=O)c3ccccc23)ccc1F)N1CCN(C(=O)C2CC2)CC1 [Olaparib] (partner 8 µM)
# Assay: as above
# Conditions: first compound 0.002 µM
# Summary of the method: as §1
row,Cell Line,relative viability
1,NCI-H2342,0.411
2,NCI-H1650,1.03
3,EBC-1,0.809
4,NCI-H1993,1.29
5,SK-LU-1,0.428
6,NCI-H838,0.924
7,LCLC-103H,0.823
8,NCI-H520,0.328
9,NCI-H2126,0.975
10,EMC-BAC-2,0.613
11,NCI-H2085,0.887
12,Calu-6,0.553
13,HCC-366,0.243
14,NCI-H1666,0.955
15,NCI-H596,0.656
16,LK-2,0.61
17,NCI-H2087,0.719
